This note sets out measurements from ChEMBL document CHEMBL1141724, “Design and synthesis of 2-amino-pyrazolopyridines as Polo-like kinase 1 inhibitors” (Bioorg Med Chem Lett, 2008).

Calls of active or inactive are those of the source. The rule behind the calls is not given here.

The target in assay [1] is Serine/threonine-protein kinase PLK1 (Homo sapiens, UniProt P53350).
In assay [2] the test system is HCT-116. In words: cells. As to conditions: Homo sapiens.
Description: Effect on cell cycle progression in human HCT116 cells assessed as mitotic arrest measured by doubling DNA content by fluorescence microscopy
For assay [3], the system named is HCT-116. Put plainly: cells. As to conditions: Homo sapiens. This is another data set of the same source.
Description: Effect on cell cycle progression in human HCT116 cells assessed as increase in phospho-histone H3 by fluorescence microscopy
Assay [4] concerns HCT-116. In words: cells. As to conditions: Homo sapiens. This is another data set of the same source.
Description: Effect on cell cycle progression in human HCT116 cells assessed as mitotic arrest measured by doubling DNA content by High content screening
Assay [5] in a line: Selectivity for Plk1 over Aurora A.
Assay [6] in a line: Selectivity for Plk1 over Plk3.
Assay [7] in a line: Selectivity for Plk1 over Plk2.
Assay [8] relates to HeLa. Put plainly: Decrease in B23 nucleophosmin phosphorylation in human HeLa cells at 5 uM after 16 hrs by Western blot analysis. It counts as functional, cell-based. (In general: In western blotting, separated proteins are transferred to a membrane and probed.)

Sequence of Serine/threonine-protein kinase PLK1 (P53350 whole entry): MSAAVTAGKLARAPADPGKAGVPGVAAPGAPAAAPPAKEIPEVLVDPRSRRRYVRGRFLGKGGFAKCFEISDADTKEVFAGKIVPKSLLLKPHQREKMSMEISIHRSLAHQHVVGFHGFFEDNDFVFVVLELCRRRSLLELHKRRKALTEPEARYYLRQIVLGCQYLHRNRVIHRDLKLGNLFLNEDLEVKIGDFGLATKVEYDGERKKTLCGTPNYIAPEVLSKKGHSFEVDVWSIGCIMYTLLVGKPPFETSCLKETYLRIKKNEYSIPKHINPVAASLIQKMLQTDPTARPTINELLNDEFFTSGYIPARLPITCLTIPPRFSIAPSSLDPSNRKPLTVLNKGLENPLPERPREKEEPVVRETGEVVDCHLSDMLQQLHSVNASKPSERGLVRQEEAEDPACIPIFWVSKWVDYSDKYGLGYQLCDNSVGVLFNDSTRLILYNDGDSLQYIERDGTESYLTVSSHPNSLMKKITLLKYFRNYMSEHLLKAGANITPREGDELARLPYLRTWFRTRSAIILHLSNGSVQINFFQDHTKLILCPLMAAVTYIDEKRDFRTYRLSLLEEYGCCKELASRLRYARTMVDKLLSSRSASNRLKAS

`COc1ccccc1-n1nc(C)c2cnc(N[C@@H](C)c3ccccc3)cc21` displayed an IC50 in assay [1] of 14500 nM.
Turning to `Cc1cccc(-n2nc(C)c3cnc(N[C@@H](C)c4ccccc4)cc32)c1`, in assay [1], 474 nM corresponded to half-maximal inhibition (IC50).
`CCOC(=O)C1=C(C)NC(=S)NC1c1cccc(O)c1` (centres undefined) [MONASTROL]: the values for the EC50 in assay [2] and in assay [3] were 1200 nM and 1500 nM, respectively.
For the compound `Cc1ccc(-n2nc(C)c3cnc(N[C@@H](C)c4ccccc4)cc32)cc1`, the concentration for half-maximal inhibition (IC50) in assay [1] worked out at 4530 nM.
`Cc1nn(-c2cccc(Cl)c2)c2cc(N[C@@H](C)c3ccccc3)ncc12` showed an EC50 in assay [4] of more than 20000 nM.
In assay [1], `COc1cccc(-n2nc(C)c3cnc(N[C@@H](C)c4ccccc4)cc32)c1` came in with an IC50 of 5930 nM.
In assay [4], `CC(=O)Nc1ccccc1-c1cc(Cl)cc(-n2nc(C)c3cnc(N[C@@H](C)c4ccccc4)cc32)c1` displayed an EC50 of more than 20000 nM. In addition, the IC50 in assay [1] stood at 207 nM.
Consider `Cc1nn(-c2cccc(C(C)C)c2)c2cc(N[C@@H](C)c3ccccc3)ncc12`, for which the IC50 in assay [1] was 1480 nM.
In assay [1], `Cc1nn(-c2cccc(C#N)c2)c2cc(N[C@@H](C)c3ccccc3)ncc12` displayed an IC50 of 412 nM.
In the case of `Cc1nn(-c2cccc(N(C)C)c2)c2cc(N[C@@H](C)c3ccccc3)ncc12`, in assay [1], the IC50 turned out to be 977 nM.
For the compound `Cc1nn(-c2cc(Cl)cc(CCC(=O)O)c2)c2cc(N[C@@H](C)c3ccccc3)ncc12`, the EC50 in assay [4] is more than 20000 nM. This compound had an IC50 in assay [1] of 21 nM.
For the compound `C[C@H](Nc1cc2c(cn1)cnn2-c1ccccc1C(N)=O)c1ccccc1`, the EC50 in assay [4] amounted to 2430 nM; in assay [2], 1900 nM; in assay [3], 1700 nM. The values for the Selectivity ratio in assay [5], in assay [6] and in assay [7] were 150, 50 and 50, respectively. Also, in assay [8], the outcome was Active. The compound further yielded an IC50 in assay [1] of 50 nM.
In assay [4], `Cc1nn(-c2ccccc2C(N)=O)c2cc(N[C@@H](C)c3ccccc3)ncc12` had an EC50 of 3640 nM. In assay [1], this compound returned an IC50 of 42 nM.
The corresponding values for `Cc1nn(-c2cc(Cl)cc(CCC(N)=O)c2)c2cc(N[C@@H](C)c3ccccc3)ncc12` are 9350 nM and 32 nM.
The corresponding values for `Cc1nn(-c2cc(Cl)cc(CCCN)c2)c2cc(N[C@@H](C)c3ccccc3)ncc12` are 5800 nM and 59 nM.
In the case of `Cc1nn(-c2cc(Cl)cc(Br)c2)c2cc(N[C@@H](C)c3ccccc3)ncc12`, the IC50 in assay [1] worked out at 274 nM.
`Cc1nn(-c2cc(Cl)cc(CCC(=O)NCCO)c2)c2cc(N[C@@H](C)c3ccccc3)ncc12` came in with an EC50 in assay [4] of 9200 nM. Also, the IC50 in assay [1] was 48 nM.
`Cc1nn(-c2cccc(S(C)(=O)=O)c2)c2cc(N[C@@H](C)c3ccccc3)ncc12` showed a concentration for half-maximal inhibition (IC50) in assay [1] of 225 nM.
For `Cc1nn(-c2cc(Cl)cc(Cl)c2)c2cc(N[C@@H](C)c3ccccc3)ncc12`, the IC50 in assay [1] turned out to be 641 nM.
On to `Cc1nn(-c2ccccc2F)c2cc(N[C@@H](C)c3ccccc3)ncc12`, for which the IC50 in assay [1] turned out to be 4520 nM.
Same read-out and setting: as for `Cc1cc(C)cc(-n2nc(C)c3cnc(N[C@@H](C)c4ccccc4)cc32)c1`, the figure is 149 nM; as for `COc1ccc(-n2nc(C)c3cnc(N[C@@H](C)c4ccccc4)cc32)cc1`, 703 nM; as for `Cc1ccccc1-n1nc(C)c2cnc(N[C@@H](C)c3ccccc3)cc21`, 7690 nM.
In the case of `Cc1nn(-c2ccc(F)cc2)c2cc(N[C@@H](C)c3ccccc3)ncc12`, half-maximal inhibition in assay [1] (IC50) required 3240 nM. This IC50 lies about 2.4-fold lower than the previous one.
In assay [1], `Cc1nn(-c2cccc(F)c2)c2cc(N[C@@H](C)c3ccccc3)ncc12` had an IC50 of 464 nM.

The IC50 is the concentration at which inhibition is half-maximal. The low end stands for greater potency in that assay, the high end for weaker potency in that assay. As a reminder, the EC50 is the concentration needed to bring the measured effect to its halfway point. The low end stands for greater potency, the high end for weaker potency.
